Laboratory results taken from patent publication US9592186B2, “Topical compositions and methods for skin lightening” (Avon Products, Inc., priority 2014, dated 2017).

Test system: Human epidermal melanocytes from dark-pigmented skin
Test: Melanin absorbance (pigmentation) in cultured human epidermal melanocytes after 8 days of incubation
Type: cell-based
Details: for effect on pigmentation (in words): summary of Table 1; for % Pigmentation (percent change of melanin absorbance relative to vehicle control): 8 days incubation, absorption at 405 nm
Experimental: The Compound of Formula (II) was examined for its ability to reduce pigmentation in vitro in human melanocytes. Human epidermal melanocytes from dark-pigmented skin were seeded in 6-well dishes and grown using commercially available Medium 254, a sterile, liquid medium prepared with 200 μM calcium chloride for the culture of human epidermal melanocytes, supplemented with 1% Penicillin/Streptomycin and 1% Human Melanocyte Growth Supplement. Corresponding controls were maintained without histamine, Diphenylhydramine HCl and Compound II. Four replicates were tested for each combination. After 8 days of incubation, melanin was collected and processed by washing the wells with IX phosphate-buffered saline (PBS), followed by addition of 200 μL of 2M NaOH to three of the four replicates, which are then scraped, pooled and boiled at 80° C. for an hour. Melanin absorption was then measured at 405 nm using a spectrophotometer.
A larger (positive or negative) percent change indicates a larger increase or reduction in melanin.

Row | SMILES | effect on pigmentation (in words) (at both concentrations tested (0.001% and 0.0001%)) | % Pigmentation (percent change of melanin absorbance relative to vehicle control) (concentration 0.0001%) | % Pigmentation (percent change of melanin absorbance relative to vehicle control) (concentration 0.001%) | effect on pigmentation (in words) (5 μM)
1 | CC(=O)c1ccc(OCC(=O)NCC(c2ccco2)N2CCCCC2)cc1 (stereo not shown) [Compound (II)] | effective to reduce pigmentation | −10.40% | −40.83% | 
2 | NCCc1c[nH]cn1 [Histamine, reference compound] |  |  |  | significant increase in pigmentation
